# Measurements published in ChEMBL document CHEMBL1158595, “2' biaryl amides as novel and subtype selective M1 agonists. Part II: Further optimization and profiling” (Bioorg Med Chem Lett, 2010).
# Assays:
# [1] = target: T1, Muscarinic acetylcholine receptor M1 (Homo sapiens, UniProt P11229); assay: Agonist activity at human muscarinic M1 receptor expressed in CHO cells assessed as effect on acetylcholine-induced intracellular calcium level by FLIPR assay; assay type: functional, cell-based
# T1 sequence (P11229 whole entry): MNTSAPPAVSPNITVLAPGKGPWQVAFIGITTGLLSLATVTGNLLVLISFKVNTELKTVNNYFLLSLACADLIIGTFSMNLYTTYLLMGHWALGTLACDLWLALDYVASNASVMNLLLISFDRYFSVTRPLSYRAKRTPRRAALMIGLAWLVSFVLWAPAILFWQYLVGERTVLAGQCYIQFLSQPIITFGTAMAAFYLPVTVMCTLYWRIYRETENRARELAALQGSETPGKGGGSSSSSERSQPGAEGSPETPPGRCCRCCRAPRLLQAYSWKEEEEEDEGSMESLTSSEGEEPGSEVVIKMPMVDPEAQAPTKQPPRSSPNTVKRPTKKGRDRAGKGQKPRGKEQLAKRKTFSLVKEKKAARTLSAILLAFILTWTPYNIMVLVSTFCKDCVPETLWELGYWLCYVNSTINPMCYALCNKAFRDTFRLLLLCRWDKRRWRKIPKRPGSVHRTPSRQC
# [2] = target: T2, Muscarinic acetylcholine receptor M1 (Homo sapiens) (UniProt P11229); assay: Intrinsic activity at human muscarinic M1 receptor expressed in CHO cells assessed as effect on acetylcholine-induced intracellular calcium level by FLIPR assay relative to acetylcholine; assay type: functional, cell-based
# T2 sequence (whole entry): T1 sequence (P11229 whole entry)
# [3] = target: Muscarinic acetylcholine receptor M3 (Homo sapiens, UniProt P20309); assay: Inhibition of human muscarinic M3 receptor expressed in CHO cells; assay type: cell-based
# Muscarinic acetylcholine receptor M3, sequence (P20309 whole entry): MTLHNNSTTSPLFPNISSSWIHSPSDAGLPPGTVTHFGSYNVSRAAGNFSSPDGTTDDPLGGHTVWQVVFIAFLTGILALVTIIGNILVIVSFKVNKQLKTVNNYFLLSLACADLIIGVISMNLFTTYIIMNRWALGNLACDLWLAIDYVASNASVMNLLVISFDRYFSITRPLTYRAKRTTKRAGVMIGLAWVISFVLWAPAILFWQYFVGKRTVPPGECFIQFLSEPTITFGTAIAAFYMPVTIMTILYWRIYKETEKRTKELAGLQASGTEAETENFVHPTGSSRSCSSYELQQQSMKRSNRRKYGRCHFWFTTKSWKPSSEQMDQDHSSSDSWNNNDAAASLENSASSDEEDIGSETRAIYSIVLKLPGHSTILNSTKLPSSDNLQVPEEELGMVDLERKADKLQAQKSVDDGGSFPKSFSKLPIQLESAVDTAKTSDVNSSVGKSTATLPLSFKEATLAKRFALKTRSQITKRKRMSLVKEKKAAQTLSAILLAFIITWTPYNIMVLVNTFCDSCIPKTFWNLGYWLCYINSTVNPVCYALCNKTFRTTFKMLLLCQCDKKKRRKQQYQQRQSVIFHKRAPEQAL
Compound,EC50 [1] [µM],Intrinsic activity [2] [%],IC50 [3] [µM]
Clc1cccc(-c2ccccc2/C=C/CC2CCNCC2)c1,1,55,0.0126
OC(CCC1CCNCC1)c1ccccc1-c1cccc(Cl)c1 (configuration not stated),0.001,100,0.002
Clc1cccc(-c2ccccc2OCCC2CCNCC2)c1,> 10,,
O=S(=O)(NCC1CCNCC1)c1ccccc1-c1cccc(Cl)c1,> 10,,
CN(C(=O)CC1CCNCC1)c1ccccc1-c1cccc(Cl)c1,> 10,,
Clc1cccc(-c2ccccc2COCC2CCNCC2)c1,> 10,,
O=C(CC1CCNCC1)Nc1ccccc1-c1cccc(Cl)c1,7.94,43,
CC(=O)N(Cc1ccccc1-c1cccc(Cl)c1)CC1CCNCC1,0.398,70,
CN(Cc1ccccc1-c1cccc(Cl)c1)C(=O)C1CCNCC1,> 10,,
CC1CNCC=C1CNC(=O)c1c(-c2cccc(Cl)c2)ccc(Cl)c1F (configuration not stated),0.158,72,
O=C(CCC1CCNCC1)c1ccccc1-c1cccc(Cl)c1,> 10,,
CN(CC1CCNCC1)S(=O)(=O)c1ccccc1-c1cccc(Cl)c1,> 10,,
Fc1cccc(-c2cccc(Cl)c2)c1-c1noc(CC2CCNCC2)n1,> 10,,
O=C(OCC1CCNCC1)c1ccccc1-c1cccc(Cl)c1,> 10,,
CS(=O)(=O)N(Cc1c(F)cccc1-c1cccc(Cl)c1)CC1CCNCC1,1.58,51,
Clc1cccc(-c2ccccc2CNCC2CCNCC2)c1,> 10,,
CN(C(=O)Cc1ccccc1-c1cccc(Cl)c1)C1CCNCC1,0.0501,7.8,
Fc1cccc(-c2cccc(Cl)c2)c1-c1noc(C2CCNCC2)n1,> 10,,

# Continued, values first:
EC50 [1] [µM],Intrinsic activity [2] [%],IC50 [3] [µM],Compound
0.1,79,,O=C(NCC1CCNCC1)c1ccc(Cl)cc1-c1cccc(Cl)c1
> 10,0,,O=C(NCC1CCNCC1)c1sccc1-c1cccc(Cl)c1
1,67,,Cc1ccc(-c2cccc(Cl)c2)c(C(=O)NCC2CCNCC2)c1
> 10,37,,Cc1cccc(-c2cccc(Cl)c2)c1C(=O)NCC1CCNCC1
> 10,0,,O=C(NCC1CCNCC1)c1cccnc1-c1cccc(Cl)c1
0.0501,78,,O=C(NCC1CCNCC1)c1cc(F)ccc1-c1cccc(Cl)c1
> 10,3,,O=C(NCC1CCNCC1)c1ccncc1-c1cccc(Cl)c1
> 10,18,,O=C(NCC1CCNCC1)c1ncccc1-c1cccc(Cl)c1
> 10,34,,Cc1cccc(C(=O)NCC2CCNCC2)c1-c1cccc(Cl)c1
3.16,52,,O=C(NCCC1CCNCC1)c1ccccc1-c1cccc(Cl)c1
0.158,77,,Cc1ccc(C(=O)NCC2CCNCC2)c(-c2cccc(Cl)c2)c1
0.0251,80,,O=C(NCC1CCNCC1)c1c(-c2cccc(Cl)c2)ccc(Cl)c1F
> 10,14,,O=C(NCC1CCNCC1)c1cccc(Cl)c1-c1cccc(Cl)c1
5.01,45,,O=C(NCC1CCNCC1)c1cccc(F)c1-c1cccc(Cl)c1
> 10,20,,O=C(NCC1CCNCC1)c1cnccc1-c1cccc(Cl)c1
0.0158,90,,O=C(NCC1CCNCC1)c1c(F)cccc1-c1cccc(Cl)c1
0.0631,109,,O=C(NCC1CCNCC1)c1c(Cl)cccc1-c1cccc(Cl)c1
> 10,0,,Cn1cc(-c2cccc(Cl)c2)c(C(=O)NCC2CCNCC2)n1
0.1,74,,O=C(NCC1CCNCC1)c1cc(Cl)ccc1-c1cccc(Cl)c1
> 10,24,,O=C(NCC1CCNCC1)c1ccc(F)cc1-c1cccc(Cl)c1
